“Also recorded” adds a separate entry of the source.
Columns and labels:
[1] = test system: G6PD; test: G6PD activity in BAEC; format: cell-based, bovine; conditions: for G6PD activity: VEGF 100 ng/ml
Excerpt: (§1) To investigate the role of G6PD in vascular endothelial cell proliferation, we initially sought to determine if growth factors involved in angiogenesis, such as vascular endothelial growth factor (VEGF), influenced G6PD activity.
(§2) To examine further the role of G6PD in VEGF-mediated cell proliferation, we next inhibited G6PD activity by exposing BAEC to dehydroepiandrosterone (DHEA) ([…]), a noncompetitive inhibitor of G6PD, for 24 hr.
(§3) As a control, we used a phosphorothioate oligodeoxynucleotide with a scrambled sequence (SS).
(§4) We have recently constructed an adenoviral vector incorporating murine G6PD cDNA (93% homologous to the rat cDNA).

[2] = test system: bovine aortic endothelial cells (BAEC); test: Cellular NADPH levels in BAEC; format: cell-based; conditions: for cellular NADPH levels: VEGF 100 ng/ml
Excerpt: as §1, §4

[3] = test system: bovine aortic endothelial cells (BAEC); test: Endothelial cell proliferation by [3H]-thymidine incorporation; format: cell-based
Procedure: FIGS. 1A and 1B show G6PD and endothelial cell proliferation. BAEC were treated with DHEA to decrease G6PD activity and stimulated with VEGF (100 ng/ml) for 8 hr (1A). Cell proliferation is measured by [^3H]-Thymidine incorporation. G6PD expression was inhibited by trans(in)fection with an antisense oligonucleotide to G6PD mRNA (AS) or a scrambled control (SS) and proliferation was determined by [^3H]-Thymidine incorporation (1B). Results are expressed as counts per minute (cpm) and data presented as mean±SEM. *p<0.01 vs.−VEGF.**p<0.01 vs.−DHEA or −SS.
as §2, §3, §4

[4] = test system: bovine aortic endothelial cells (BAEC); test: Cell death by lactate dehydrogenase activity measured in the media; format: cell-based; conditions: DHEA-treated BAEC
Excerpt: as §2

[5] = test system: bovine aortic endothelial cells (BAEC); test: Cell migration in modified Boyden chamber; format: cell-based; conditions: for cell migration (fluorescence), result in words: BAEC; for cell migration: VEGF-stimulated BAEC (100 ng/ml, 18 hr) with eNOS inhibitor (L-NAME 1 mmol/L, L-NMMA 100 μmol/L)
Procedure: Fluorescently labeled, BAEC were stimulated with VEGF (100ng/ml) for 18 hr and cell migration was assessed in a modified Boyden Chamber.
BAEC were fluorescently labeled with calcein AM (Molecular Probes, Inc.) and 0.4×10^3 cells were loaded to the top of a pre-fitted membrane filter that fit a specially designed 96-well microplate. The microplate wells were loaded with serum-free media and VEGF (100 ng/ml) for 18 hr., and cells were allowed to migrate across the membrane. The plate was then analyzed using a fluorescent microplate reader.

[6] = test system: bovine aortic endothelial cells (BAEC); test: Cell-wounding migration assay; format: cell-based; conditions: VEGF 100 ng/ml, serum-free media, 18 hr
Procedure: FIGS. 3A-D show G6PD and endothelial cell migration.
We next examined the role of G6PD on VEGF-stimulated endothelial cell migration. In a cell-wounding migration assay, BAEC were grown to confluence on a P100 culture dish. Using a sterile scalpel, a vertical incision was made in the midline of the dish, and under microscopic guidance, BAEC were removed from one-half of the plate. BAEC were then incubated with VEGF (100 ng/ml) in serum-free media, and cell migration across the midline was observed after 18 hr and quantified by the average cell count in 5 high powered fields.

[7] = test system: G6PD; test: G6PD expression by Western analysis in BAEC; format: cell-based, bovine
Excerpt: as §1, §3, §4

[8] = test system: bovine aortic endothelial cells (BAEC); test: Endothelial cell tube formation on Matrigel; format: cell-based; conditions: VEGF 100 ng/ml for 12 hr
Procedure: FIGS. 5A and B show G6PD and Tube Formation. BAEC were transfected with an antisense oligodecocynucleotide to G6PD and mRNA (AS) or a scrambled control (SS) and plated on Matrigel. Cells were then stimulated with VEGF and tube formation was assessed visually (5A) and quantified using area analysis with background substration (5B). Results of area analysis are the average of 10 high-powered fields.
FIGS. 6A and B show G6PD overexpression and tube formation. G6PD expression was increased via adenoviral-mediated gene transfer. BAEC were then placed on Matrigel and stimulated with VEGF ([…]).
To examine the role of G6PD in endothelial cell tube formation in vitro, we plated BAEC on Matrigel and stimulated cells with VEGF (100ng/ml) for 12 hr. Results were quantified using NIH Image to determine area of tube formation. Under basal conditions, BAEC plated on Matrigel formed tubes and networks that were increased following exposure to VEGF.
In order to confirm that G6PD importantly modulates tube formation in vitro, we next increased G6PD expression via adenoviral-mediated gene transfer and examined tube formation.

[9] = test system: C3H wild-type (WT) and hemizygous male (HEMI) mice; test: In vivo Matrigel plug migration assay; parameters: species or system mouse
Procedure: To examine the effect of G6PD activity on angiogenesis in vivo, we performed an in vivo Matrigel migration assay in C3H wild-type (WT) and hemizygous male (HEMI) mice. Matrigel, derived from mouse basement membrane proteins, was implanted subcutaneously in the groin area to form a Matrigel “plug”. Each mouse was injected on one side with either Matrigel alone, or Matrigel supplemented with VEGF (100 ng/ml). In this manner, each animal could serve as its own control. Plugs were left in place for 14 days. Following this time, the animals were euthanized, plugs excised with surrounding tissue for orientation, and embedded and sectioned in paraffin. Sections were then stained with Hematoxylin & Eosin (H&E). Images were captured digitally and assessed for cell counts. For orientation purposes, a representative Matrigel plug from a WT mouse at 4× (right) and 20× (left) magnification is shown below (FIG. 9).
These findings were quantified by counting cells in 10 randomly selected high-power (20×) fields per image in 3 successive images. […] These findings confirm that G6PD modulates angiogenesis in vivo.
We next wanted to determine if we could “rescue” the G6PD-deficient phenotype using gene transfer to increase local G6PD expression. We treated Matrigel with an adenoviral vector encoding for G6PD implanted plugs in HEMI mice for 7 days in the presence or absence of VEGF (FIG. 13).

[10] = DHEA-treated or AS transfection for 5 hours

C[C@]12CC[C@H](O)CC1=CC[C@@H]1[C@@H]2CC[C@]2(C)C(=O)CC[C@@H]12 [DHEA, dehydroepiandrosterone]
reduction in G6PD activity [1, 10]: 60% | decrease in the level of cellular NADPH [2, 10]: 30% | [3H]-thymidine incorporation ([3]; basal conditions (DHEA 100 pmol/L for 24 hr; AS or SS transfected)): 9,967±1,531 cpm | [3H]-thymidine incorporation ([3]; following stimulation with VEGF 100 ng/ml for 8 hr): 8,902±1,451 cpm | cell death by lactate dehydrogenase activity in the media [4]: not the result of increased cell death | cell migration (fluorescence), result in words ([5]; VEGF 100 ng/ml, 18 hr): abrogated; also recorded: VEGF did not significantly increase migration | cell migration across the midline, average cell count [6]: 10±2 cells/hpf

COC(=O)[C@@H](N)CCCNC(=N)N[N+](=O)[O-] [L-NAME]
cell migration [5]: 23.6±17 units

CNC(=N)NCCC[C@H](N)C(=O)O [L-NMMA]
cell migration [5]: 21.6±7.3 units

VEGF
G6PD activity ([1]; 24 hr): 87±19 units/6 min/mg protein | G6PD activity ([1]; after 4 hr): 182.7±37 units/6 min/mg protein | cellular NADPH levels ([2]; 4 hr): 0.5±0.04 mmoles/mg protein | cellular NADPH levels ([2]; 24 hr): 0.4±0.08 mmoles/mg protein | G6PD expression [7]: did not increase G6PD expression | tube formation / vessel area [8]: increased | cell migration as fluorescence ([5]; BAEC with normal G6PD activity, VEGF 100 ng/ml, 18 hr): 55.3±6.6 units | cell migration (fluorescence), result in words ([5]; VEGF 100 ng/ml, 18 hr): significant increase in fluorescence | cell migration across the midline, average cell count [6]: 28±6 cells/hpf | cell migration into the Matrigel plug ([9]; HEMI mice, 7 days): not increased significantly | cell migration into the Matrigel plug ([9]; HEMI mice, 14 days, Matrigel with VEGF 100 ng/ml): did not significantly improve this response | cell migration into the Matrigel plug ([9]; WT mice, 14 days, Matrigel with VEGF 100 ng/ml): increased the number of cells migrating into the Matrigel plug

Source: patent US20050032687A1, “Method and composition for the modulation of angiogenesis” (priority 2001, published 2005)
